According to patent publication US10413505B1, “Pharmaceutical compositions and methods of using the same” (priority 2017, dated 2019):
Like-named read-outs stand apart in the source and are kept apart here.

Assays:
[1] = Example 1 urinary pharmacokinetics after intranasal administration; type: in vivo, human; details: healthy subjects, single intranasal 160 mg cocaine HCl; for CL renal / dose excreted: human, urine, 160 mg; for CL renal: inhaled or intranasal; for dose excreted: other: intranasal
Procedure: A single dose of a pharmaceutical composition was administered to both nostrils using cottonoid pledgets. […] Each pledget absorbed approximately 1 mL of pharmaceutical composition (i.e., 40 mg cocaine hydrochloride). Two soaked pledgets were placed into each nasal cavity of the subject and against the anterior septum for 20 minutes; thus, a total dose of 160 mg of cocaine hydrochloride was administered.
Urine samples were collected pre-dose and at the following intervals from the start of intranasal application of the pharmaceutical composition: 0-2 hours, 2-4 hours, 4-8 hours, and 8-12 hours. […] A 25-μL aliquot of each urine sample was processed by liquid-liquid extraction.
Urinary pharmacokinetic parameters were analyzed using noncompartmental methods.

[2] = Example 2 plasma pharmacokinetics, normal renal function vs severe renal impairment; details: for AUC(0-t) / AUC(0-inf) / Cmax / Tmax / half-life: both, human, 160 mg
[3] = Example 3 plasma pharmacokinetics, normal hepatic function vs hepatic impairment; details: ANOVA
[4] = urine 0-12 h, metabolites as cocaine equivalents
[5] = normal renal function, single intranasal 160 mg cocaine HCl, plasma
[6] = severe renal impairment vs normal renal function, ANOVA
[7] = severe renal impairment, single intranasal 160 mg cocaine HCl, plasma

COC(=O)[C@H]1[C@@H](OC(=O)c2ccccc2)C[C@@H]2CC[C@H]1N2C [Cocaine, cocaine, reference compound]
Total Urinary Recovery (Geometric mean) [1, 4]: 96.5 µg
Total Urinary Recovery (Mean) [1, 4]: 117 µg
Total Urinary Recovery (Median) [1, 4]: 114 µg
CL renal ([1]; read-out: Renal Clearance (Geometric mean) (converted)): 37.2 mL/min
CL renal ([1]; read-out: Renal Clearance (Mean) (converted)): 47.2 mL/min
CL renal ([1]; read-out: Renal Clearance (Median) (converted)): 42.7 mL/min
dose excreted ([1]; urine 0-12 h, metabolites as cocaine equivalents, read-out: Urinary Recovery (Geometric mean)): 0.0603%
dose excreted ([1]; urine 0-12 h, metabolites as cocaine equivalents, read-out: Urinary Recovery (Mean)): 0.0729%
dose excreted ([1]; urine 0-12 h, metabolites as cocaine equivalents, read-out: Urinary Recovery (Median)): 0.0714%
CL/F (Geometric Least Squares Mean, ANOVA) ([2]; Impaired renal function (severe), single intranasal 160 mg cocaine HCl): 1333 L/h
AUC(0-t) ([2]; plasma, inhaled or intranasal, AUC0→t (Geometric mean), normal renal function, single intranasal 160 mg cocaine HCl): 78.7 ng·h/mL
AUC(0-t) ([2]; plasma, inhaled or intranasal, AUC0→t (Geometric mean), severe renal impairment, single intranasal 160 mg cocaine HCl): 106 ng·h/mL
AUC(0-t) ([2]; plasma, inhaled or intranasal, AUC0→t (Mean), normal renal function, single intranasal 160 mg cocaine HCl): 83.5 ng·h/mL
AUC(0-t) ([2]; plasma, inhaled or intranasal, AUC0→t (Mean), severe renal impairment, single intranasal 160 mg cocaine HCl): 119 ng·h/mL
AUC(0-t) ([2]; plasma, inhaled or intranasal, AUC0→t (Median), normal renal function, single intranasal 160 mg cocaine HCl): 91.6 ng·h/mL
AUC(0-t) ([2]; plasma, inhaled or intranasal, AUC0→t (Median), severe renal impairment, single intranasal 160 mg cocaine HCl): 109 ng·h/mL
AUC(0-inf) ([2]; plasma, inhaled or intranasal, AUC0→∞ (Geometric mean), normal renal function, single intranasal 160 mg cocaine HCl): 80.5 ng·h/mL
AUC(0-inf) ([2]; plasma, inhaled or intranasal, AUC0→∞ (Geometric mean), severe renal impairment, single intranasal 160 mg cocaine HCl): 107 ng·h/mL
AUC(0-inf) ([2]; plasma, inhaled or intranasal, AUC0→∞ (Mean), normal renal function, single intranasal 160 mg cocaine HCl): 85 ng·h/mL
AUC(0-inf) ([2]; plasma, inhaled or intranasal, AUC0→∞ (Mean), severe renal impairment, single intranasal 160 mg cocaine HCl): 120 ng·h/mL
AUC(0-inf) ([2]; plasma, inhaled or intranasal, AUC0→∞ (Median), normal renal function, single intranasal 160 mg cocaine HCl): 92.9 ng·h/mL
AUC(0-inf) ([2]; plasma, inhaled or intranasal, AUC0→∞ (Median), severe renal impairment, single intranasal 160 mg cocaine HCl): 110 ng·h/mL
AUC(0-t) ([2]; plasma, inhaled or intranasal, AUClast (Geometric Least Squares Mean, ANOVA), Impaired renal function (severe), single intranasal 160 mg cocaine HCl): 106 ng·h/mL
AUC(0-t) ([2]; plasma, inhaled or intranasal, AUClast (Geometric Least Squares Mean, ANOVA), Normal renal function, single intranasal 160 mg cocaine HCl): 78.7 ng·h/mL
Cmax ([2]; plasma, inhaled or intranasal, Cmax (Geometric Least Squares Mean, ANOVA), Impaired renal function (severe), single intranasal 160 mg cocaine HCl): 47.9 ng/mL
Cmax ([2]; plasma, inhaled or intranasal, Cmax (Geometric Least Squares Mean, ANOVA), Normal renal function, single intranasal 160 mg cocaine HCl): 35.9 ng/mL
Cmax ([2]; plasma, inhaled or intranasal, Cmax (Geometric mean), normal renal function, single intranasal 160 mg cocaine HCl): 35.9 ng/mL
Cmax ([2]; plasma, inhaled or intranasal, Cmax (Geometric mean), severe renal impairment, single intranasal 160 mg cocaine HCl): 47.9 ng/mL
Cmax ([2]; plasma, inhaled or intranasal, Cmax (Mean), normal renal function, single intranasal 160 mg cocaine HCl): 38.1 ng/mL
Cmax ([2]; plasma, inhaled or intranasal, Cmax (Mean), severe renal impairment, single intranasal 160 mg cocaine HCl): 57.8 ng/mL
Cmax ([2]; plasma, inhaled or intranasal, Cmax (Median), normal renal function, single intranasal 160 mg cocaine HCl): 37 ng/mL
Cmax ([2]; plasma, inhaled or intranasal, Cmax (Median), severe renal impairment, single intranasal 160 mg cocaine HCl): 55.4 ng/mL
Cmax ([2]; plasma, inhaled or intranasal, Cmax, range observed, renally impaired patients, soaked absorbent articles on nasal mucous membranes): 21.9 to 93.7 ng/mL
Tmax ([2]; plasma, inhaled or intranasal, Tmax (Geometric mean), normal renal function, single intranasal 160 mg cocaine HCl): 31.1 min
Tmax ([2]; plasma, inhaled or intranasal, Tmax (Geometric mean), severe renal impairment, single intranasal 160 mg cocaine HCl): 25.7 min
Tmax ([2]; plasma, inhaled or intranasal, Tmax (Mean), normal renal function, single intranasal 160 mg cocaine HCl): 35 min
Tmax ([2]; plasma, inhaled or intranasal, Tmax (Mean), severe renal impairment, single intranasal 160 mg cocaine HCl): 26.9 min
Tmax ([2]; plasma, inhaled or intranasal, Tmax (Median), severe renal impairment, single intranasal 160 mg cocaine HCl): 25 min
Tmax ([2]; plasma, inhaled or intranasal, median Tmax, normal renal function, single intranasal 160 mg cocaine HCl): 30 min
half-life ([2]; plasma, inhaled or intranasal, t1/2 (Geometric mean), normal renal function, single intranasal 160 mg cocaine HCl): 247 min
half-life ([2]; plasma, inhaled or intranasal, t1/2 (Geometric mean), severe renal impairment, single intranasal 160 mg cocaine HCl): 325 min
half-life ([2]; plasma, inhaled or intranasal, t1/2 (Mean), normal renal function, single intranasal 160 mg cocaine HCl): 300 min
half-life ([2]; plasma, inhaled or intranasal, t1/2 (Mean), severe renal impairment, single intranasal 160 mg cocaine HCl): 361 min
half-life ([2]; plasma, inhaled or intranasal, t1/2 (Median), normal renal function, single intranasal 160 mg cocaine HCl): 233 min
half-life ([2]; plasma, inhaled or intranasal, t1/2 (Median), severe renal impairment, single intranasal 160 mg cocaine HCl): 383 min
AUC(0-inf) ([2]; plasma, other: intranasal (drug-soaked pledgets in the nasal cavity), AUCinf, range observed, renally impaired patients): 61.2 to 180 ng·h/mL
Tmax ([2]; plasma, other: intranasal (drug-soaked pledgets in the nasal cavity), Tmax, range observed, renally impaired patients): 18.1 to 35.7 min
CL/F (Geometric Least Squares Mean, ANOVA) ([2]; normal renal function, single intranasal 160 mg cocaine HCl): 1774 L/h
AUC0→t (Max) [2, 5]: 109.9 ng·h/mL
AUC0→t (Min) [2, 5]: 34.29 ng·h/mL
AUC0→∞ (Max) [2, 5]: 110.3 ng·h/mL
AUC0→∞ (Min) [2, 5]: 37.67 ng·h/mL
Clast (Geometric mean) [2, 5]: 0.209 ng/mL
Clast (Max) [2, 5]: 0.626 ng/mL
Clast (Mean) [2, 5]: 0.263 ng/mL
Clast (Median) [2, 5]: 0.154 ng/mL
Clast (Min) [2, 5]: 0.114 ng/mL
Cmax (Max) [2, 5]: 62.7 ng/mL
Cmax (Min) [2, 5]: 16.7 ng/mL
Tlast (Geometric mean) [2, 5]: 20.6 h
Tlast (Max) [2, 5]: 32.0 h
Tlast (Mean) [2, 5]: 22.5 h
Tlast (Median) [2, 5]: 24.0 h
Tlast (Min) [2, 5]: 720 min
Tmax (Max) [2, 5]: 1.500 h
t1/2 (Max) [2, 5]: 10.67 h
t1/2 (Min) [2, 5]: 124 min
CL/F, percent lower than in normal subjects ([2]; renal impairment vs normal renal function): approximately 25%
plasma exposure (geometric mean Cmax, AUC), percent higher than in normal subjects ([2]; severe renal impairment vs normal renal function): approximately 33%
AUClast Ratio Impaired/Normal [2, 6]: 134.46%
CL/F Ratio Impaired/Normal [2, 6]: 75.13%
Cmax Ratio Impaired/Normal [2, 6]: 133.28%
AUC0→t (Max) [2, 7]: 221 ng·h/mL
AUC0→t (Min) [2, 7]: 43.0 ng·h/mL
AUC0→∞ (Max) [2, 7]: 227 ng·h/mL
AUC0→∞ (Min) [2, 7]: 44.2 ng·h/mL
Clast (Geometric mean) [2, 7]: 0.159 ng/mL
Clast (Max) [2, 7]: 0.432 ng/mL
Clast (Mean) [2, 7]: 0.186 ng/mL
Clast (Median) [2, 7]: 0.131 ng/mL
Clast (Min) [2, 7]: 0.102 ng/mL
Cmax (Max) [2, 7]: 131.0 ng/mL
Cmax (Min) [2, 7]: 14.1 ng/mL
Tlast (Geometric mean) [2, 7]: 26.9 h
Tlast (Max) [2, 7]: 32.0 h
Tlast (Mean) [2, 7]: 28.0 h
Tlast (Median) [2, 7]: 32.0 h
Tlast (Min) [2, 7]: 720 min
t1/2 (Max) [2, 7]: 8.65 h
t1/2 (Min) [2, 7]: 91.8 min
AUClast Ratio Grade B/Normal [3]: 284.54%
AUClast Ratio Grade C/Normal [3]: 179.88%
CL/F Ratio Grade B/Normal (GMR) [3]: 36.25%
CL/F Ratio Grade C/Normal (GMR) [3]: 55.28%
